The numbers were not newly measured in patent EP4603079A1, “COMPOSITION COMPRISING A PEPTIDE HAVING AN ISOELECTRIC POINT OF LESS THAN 6.5 AND A CO-POLYAMINO ACID BEARING CARBOXYLATE CHARGES AND HYDROPHOBIC RADICALS” (Adocia, priority 2024, dated 2025), which cites them from elsewhere.

The data set addresses T1, amylin receptor 3 (AMYR3) (Homo sapiens, UniProt O60896+P30988).
T1 sequence (P30988 25-474): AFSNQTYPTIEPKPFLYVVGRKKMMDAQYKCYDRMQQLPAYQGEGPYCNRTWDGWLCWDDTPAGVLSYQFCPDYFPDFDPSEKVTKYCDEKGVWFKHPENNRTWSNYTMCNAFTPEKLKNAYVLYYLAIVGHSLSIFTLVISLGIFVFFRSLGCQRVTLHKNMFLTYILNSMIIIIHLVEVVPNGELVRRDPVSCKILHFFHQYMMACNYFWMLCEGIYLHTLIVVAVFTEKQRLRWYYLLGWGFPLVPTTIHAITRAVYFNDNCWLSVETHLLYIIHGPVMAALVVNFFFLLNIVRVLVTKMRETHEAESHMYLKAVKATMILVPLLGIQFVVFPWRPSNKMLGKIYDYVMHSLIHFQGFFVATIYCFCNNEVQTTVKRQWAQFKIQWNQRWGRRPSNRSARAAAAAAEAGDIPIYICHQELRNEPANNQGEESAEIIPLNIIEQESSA
T1 sequence (O60896 24-148): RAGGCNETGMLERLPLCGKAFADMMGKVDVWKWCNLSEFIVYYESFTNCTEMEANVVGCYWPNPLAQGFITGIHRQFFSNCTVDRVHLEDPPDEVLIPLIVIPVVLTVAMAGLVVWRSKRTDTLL
The note with it: procedure of WO2022129526, Assay 2; Tables 4b and 4c there; read-out: EC50value.

On to “N-alpha-[(S)-4-Carboxy-4-(19-carboxynonadecanoylamino)butyryl]-[Glu14,Arg17,Pro37]-pramlintide [cagrilintide]”, for which the EC50 was roughly 0.011 nM.
